Values quoted from earlier work in US11389549B2, “Diagnosis-treatment integrated nano-probe for 19F-MR/fluorescence multi-mode molecular imaging and drug-loading and preparation method and application of nano-probe” (Harbin Medical University, priority 2019, dated 2022).

## C=CC(=O)Nc1cc(Nc2nccc(-c3cn(C)c4ccccc34)n2)c(OC)cc1N(C)CCN(C)C [AZD9291]
DMSO and other organic solvents
  solubility in organic solvents: soluble to Dimethyl Sulfoxide (DMSO) and other organic solvents merely
water
  solubility in water: insoluble to water
